As a reminder, the pEC50 is the EC50 on a negative log10 scale, so that one unit is a factor of ten. A higher pEC50 goes with a low EC50.

The subject of assay [1] is VGLUT3 (BON VGLUT3 cells). The assay can be described thus: Confocal fluorescence labeling of BON cells expressing VGLUT3. It counts as cell-based, human (BON cells). The settings on record: for intensity of labeling in BON VGLUT3 cells relative to BON WT cells: FIG. 3, 20 minutes; for intensity of labeling in BON VGLUT3 cells relative to BON WT cells / fluorescence intensity in BON VGLUT3 cells relative to BON WT cells / labeling in cytoplasm of BON VGLUT3 cells: 37 °C; for fluorescence intensity in BON VGLUT3 cells relative to BON WT cells / labeling in cytoplasm of BON VGLUT3 cells / effect of LSP5 pretreatment on fluorescence intensity in BON VGLUT3 cells: FIG. 2; for fluorescence intensity in BON VGLUT3 cells relative to BON WT cells / labeling in cytoplasm of BON VGLUT3 cells: 1 h; for effect of LSP5 pretreatment on fluorescence intensity in BON VGLUT3 cells: pretreatment with LSP5-2157. On the procedure: A “BON” cell line describes cells derived from human pancreatic carcinoma; the article by Ramet L. et al., published in J Neurosci, 2017, 37 (15), 4181-4199, describes such cells and the use thereof for the characterization of VGLUT type transporters.
The experiments are carried out with a BON cell line stably expressing VGLUT3 or a fluorescent VGLUT2 “VGLUT2-venus”. Wild non-transfected BON cells (“wild-type”, BON WT) are used as controls. The cells are cultured in F-12 Nutrient Mixture Ham medium (21765-029, Thermo Fisher Scientific) and Dulbecco's Modified Eagle's Medium High Glucose (DMEM HG, 31966021, Thermo Fisher Scientific; volume/volume), supplemented with 10% fetal calf serum (FCS, 12483012, Thermo Fisher Scientific) and 1% (volume/volume) of a mixture of streptomycin (10 mg/mL)/penicillin (10,000 U/mL) and […] an incubator at 37 °C under 5% CO2. For the transfected clones, the medium is enriched with 0.8 mg/mL Geneticin G418 sulfate (G418, 10131027, Thermo Fisher Scientific).
The cells are cultured in 25 cm^2 culture flasks. When the cells are at confluence, they are rinsed with sterile PBS 1× after aspiration of the medium, then incubated for five minutes at 37 °C with a solution of trypsin-EDTA (0.05% trypsin EDTA, 25300054, Thermo Fisher Scientific. The cell layer is then detached and the cells dissociated from each other. After addition of medium, the cell suspension is centrifuged for 5 minutes at 300 g, then the pellet is diluted 1:3 in order to be recultivated.
Two days before each experiment, after trypsinization of the cells from a culture flask, the cell suspension is seeded at 150,000 cells/well, in twelve-well plates on glass coverslips 19 mm in diameter. For observation, these coverslips are placed in a chamber allowing a hermetic fixation of the coverslip in the observation medium, Fluorobrite™ DMEM (A1896701, Thermo Fisher Scientific), a transparent medium.
Before each observation, the cells are incubated at 37 °C in the presence of fluorescent ligands, at previously determined concentrations. The effect of a pretreatment of BON cells with a specific inhibitor of VGLUTs, the substance LSP5-2157, is also performed to study the inhibitory effect of this substance on the labeling of BON cells with the fluorescent ligands of the invention.
The cells are observed in real time under an inverted confocal microscope, with a 63× objective in a room thermostated at 37 °C (Leica TCS SP5; cellular imaging platform of the Paris-Seine Institute of Biology). The studied fluorescent molecules emit in the blue, the cells are excited at 405 nm.
FIG. 2 illustrates the observation and quantification of the BON cells under a confocal microscope, and the inhibition of the fluorescent signal by a pretreatment of the cells with the specific VGLUT inhibitor, LSP5-2157. […] The images are presented in negative. D,H,L and P: Quantification of the treatment effect.
Different acquisitions of cells are carried out using a confocal microscope. […] Statistical analysis: Kruskal-Wallis test followed by Dunn's post-hoc test, NS: non-significant, *p<0.01; ***p<0.0001.
FIG. 3 illustrates the observation and quantification of BON cells using a confocal microscope. Wild-type cells (BON WT) or VGLUT3-expressing cells (BON VGLUT3) are incubated with different fluorescent ligands referenced: L8, YL151, D04, C07, C05, B09, G02, F11. After treatment with fluorescent ligands for 20 minutes at 37 °C, a fluorescent labeling is visible in BON cells. The effect of the treatment is analyzed by quantifying the fluorescence intensity in each cell type. […] Statistical analysis: Mann Whitney test, NS: non-significant, **p=0.0042; ***p<0.0001.

The subject of assay [2] is VGLUTs (GLU vesicular transport). The assay can be described thus: Vesicular glutamate reuptake test ([3H]-glutamate, synaptic vesicles). It counts as biochemical, rat. To be noted: for potency in words (EC50): based on EC50; for pEC50: vesicular glutamate transport. On the procedure: The EC50 was also determined for several of the compounds of the invention.
The vesicular glutamate reuptake was tested as previously described (Kish and Ueda, 1989; Naito and Ueda, 1985; Pietrancosta et al., 2010) with minor modifications. Aliquots of synaptic vesicles […] (obtained by differential centrifugation of rat cortex) were diluted in a solution containing 4 mM HEPES-KOH, pH 7.4 and 0.32M sucrose. The tested compounds were dissolved in 1% ethanol, 1% DMSO (pH was adjusted to 7.4 with 5% KOH) to initial concentrations comprised between 2 mM and 200 μM. The compounds were then diluted to desired final concentrations in a solution containing 10 mM HEPES-KOH, pH 7.4, 0.32 M sucrose, 4 mM KCl, 4 mM MgSO4 (named TPU). The tested compounds were pre-incubated in a solution containing 3 mM ATP-Mg, 1 mM L-aspartic acid, 100 μM glutamate and 0.4 mM […] and 0.4 μM [3H]-Glutamate (1.547 TBq/mmol). After 4 min at 37 °C, the reuptake reaction was initiated by the addition of rat synaptic vesicles. This mixture was incubated for 10 min at 37 °C before adding ice-cold TPU (3.5 mL) and rapidly filtering it through a membrane filter ([…], Millipore MF reference HAWP02500) using a vacuum collector. The filters were washed five times with 3.5 mL of cold TPU and placed in scintillation vials with a scintillation cocktail (optiphase hisafe 3, reference 1200-437, Perkin Elmer). The radioactivity related to the filters was measured in a Beckman LS 6500 scintillation spectrophotometer. The values obtained in the absence of ATP-Mg or in the presence of Carbonyl [COMPOUND LEFT OUT] 3-chlorophenylhydrazone (CCCP, 50 μM reference Sigma C2759) were used to determine the non-specific activity.

pEC50: −log10 of the molar value.

In the case of `Nc1ccc(-c2ccc(-c3cn(-c4ccc5oc(=O)c(C(=O)O)cc5c4)nn3)cc2)cc1` [LSP17-1115, 6-(4-(4′-amino-[1,1′-biphenyl]-4-yl)-1H-1,2,3-triazol-1-yl)-2-oxo-2H-chromene-3-carboxylic Acid], the “intensity of labeling in BON VGLUT3 cells relative to BON WT cells” value in assay [1] is on record as “increases significantly”. Also, the “% inhibition of GLU vesicular transport at 20 μM” value (from here on “% inhibition”) in assay [2] (coumarin-derived compounds) was 6%.
Turning to `COc1cc2oc(=O)c(C(=O)O)cc2cc1-n1cc(-c2ccc(-c3ccc(N)cc3)cc2)nn1` [LSP17-1124, 6-(4-(4′-amino-[1,1′-biphenyl]-4-yl)-1H-1,2,3-triazol-1-yl)-7-methoxy-2-oxo-2H-chromene-3-carboxylic Acid], in assay [1], the “intensity of labeling in BON VGLUT3 cells relative to BON WT cells” value was “increases significantly”. In assay [2] (coumarin-derived compounds), the “% inhibition” value came out at 100% and the pEC50 is 6.40. Also, in assay [2], the “potency in words (EC50)” value is on record as “effective at a very low concentration”.
Turning to `O=C(O)c1cc(C(=O)O)c2cc(-c3ccc(-c4ccccc4)cc3)ccc2n1` [LSP13-1152-YL152 (L8), 6-(Biphenyl-4-yl) quinoline-2,4-dicarboxylic Acid], in assay [1], the “fluorescence intensity in BON VGLUT3 cells relative to BON WT cells” value was “significantly increases”, the “labeling in cytoplasm of BON VGLUT3 cells” value was “a punctiform labeling appears”, the “effect of LSP5 pretreatment on fluorescence intensity in BON VGLUT3 cells” value is “decreases the fluorescence intensity” and the “intensity of labeling in BON VGLUT3 cells relative to BON WT cells” value was “increases significantly”. For the same compound, in assay [2] (quinoline-derived compounds), the “% inhibition” value was 49% and the pEC50 is 4.66.
Regarding `CCOC(=O)c1cc2cc(C#Cc3ccc(-c4ccc(N)cc4)cc3)c(O)cc2oc1=O` [F11, Ethyl-6-((4′-amino-[1,1′-biphenyl]-4-yl)ethynyl)-7-hydroxy-2-oxo-2H-chromene-3-carboxylate], the “intensity of labeling in BON VGLUT3 cells relative to BON WT cells” value in assay [1] is recorded as “increases significantly”.
For `Nc1ccc(-c2ccc(C#Cc3cc4cc(C(=O)O)c(=O)oc4cc3O)cc2)cc1` [LSP17-1173, 6-((4′-amino-[1,1′-biphenyl]-4-yl)ethynyl)-7-hydroxy-2-oxo-2H-chromene-3-carboxylic Acid], in assay [1], the “fluorescence intensity in BON VGLUT3 cells relative to BON WT cells” value is “significantly increases”, the “labeling in cytoplasm of BON VGLUT3 cells” value was “a punctiform labeling appears”, the “effect of LSP5 pretreatment on fluorescence intensity in BON VGLUT3 cells” value was “decreases the fluorescence intensity” and the “intensity of labeling in BON VGLUT3 cells relative to BON WT cells” value is “increases significantly”. Further, in assay [2] (coumarin-derived compounds), the “% inhibition” value was 100% and the pEC50 was 6.30. Besides, the “potency in words (EC50)” value in assay [2] is “effective at a very low concentration”.

These data come from patent publication US20260374750A1, “LIGANDS SPECIFICALLY TARGETING VESICULAR GLUTAMATE TRANSPORTERS FOR SUPER-RESOLUTION IMAGING” (SORBONNE UNIVERSITÉ, priority 2021, published 2026).
